Experimental data published in patent US20050222146A1, “N-substituted-n-sulfonylaminocyclopropane compounds and pharmaceutical use thereof” (priority 2003, published 2005).

Assays:
aggrecanase-1 = target: T1, aggrecanase-1 (Homo sapiens, UniProt O75173); experiment: Aggrecanase-1 inhibitory action, Particle Assay (GAG release from aggrecan-containing polyacrylamide particles); type: biochemical; settings: 37° C. for 15 hr, read-out: Experimental Example 1 IC50 AG1
T1 sequence (O75173 213-837): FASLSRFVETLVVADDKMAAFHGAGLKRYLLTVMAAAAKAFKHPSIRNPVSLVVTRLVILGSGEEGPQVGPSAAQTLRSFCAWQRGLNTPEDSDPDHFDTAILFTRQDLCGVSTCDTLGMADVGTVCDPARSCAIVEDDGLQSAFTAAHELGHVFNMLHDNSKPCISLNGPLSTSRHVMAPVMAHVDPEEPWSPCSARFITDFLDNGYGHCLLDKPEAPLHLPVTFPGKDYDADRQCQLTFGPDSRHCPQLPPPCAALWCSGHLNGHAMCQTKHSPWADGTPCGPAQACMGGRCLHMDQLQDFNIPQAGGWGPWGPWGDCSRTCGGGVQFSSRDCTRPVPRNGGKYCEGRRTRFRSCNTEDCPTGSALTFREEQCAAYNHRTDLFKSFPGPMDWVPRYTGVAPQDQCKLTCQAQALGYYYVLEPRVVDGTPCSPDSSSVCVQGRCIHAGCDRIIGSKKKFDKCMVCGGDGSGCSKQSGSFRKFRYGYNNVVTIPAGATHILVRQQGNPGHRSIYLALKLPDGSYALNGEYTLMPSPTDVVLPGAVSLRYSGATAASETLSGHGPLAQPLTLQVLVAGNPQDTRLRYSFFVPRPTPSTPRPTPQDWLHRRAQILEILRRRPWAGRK
How it was run: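 IC50 (μM) derived from % inhibition, referenced to enzyme-free and inhibitor-free wells, of GAG release read as 1,9-dimethylmethylene blue absorbance at 595 nm (chondroitin sulfate standard). Substrate: aggrecan-bearing polyacrylamide particles, exposed to enzyme plus compound in Tris-HCl for 15 hr at 37 °C.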

MMP-1 = target: T2, MMP-1 (Homo sapiens, UniProt P03956); experiment: MMP-1 inhibitory action, Type I collagen Activity Measurement kit (FITC-labeled collagen type I); type: biochemical; settings: 37° C. for 3 hr, read-out: Experimental Example 2 IC50 MMP1
T2 sequence (P03956 100-469): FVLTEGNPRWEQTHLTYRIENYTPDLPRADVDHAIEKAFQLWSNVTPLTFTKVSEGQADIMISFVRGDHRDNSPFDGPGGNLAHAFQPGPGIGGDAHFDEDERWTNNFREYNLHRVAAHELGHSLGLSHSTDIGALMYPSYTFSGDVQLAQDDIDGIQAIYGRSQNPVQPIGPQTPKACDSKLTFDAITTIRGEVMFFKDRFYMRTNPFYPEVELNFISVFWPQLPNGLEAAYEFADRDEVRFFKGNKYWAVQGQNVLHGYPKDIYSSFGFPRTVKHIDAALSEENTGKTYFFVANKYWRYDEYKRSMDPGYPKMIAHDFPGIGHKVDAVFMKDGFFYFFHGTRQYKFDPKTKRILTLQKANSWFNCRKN

SMILES | IC50 (aggrecanase-1) [µM] | IC50 (MMP-1) [µM]
O=C(O)CN([C@]1(C(=O)O)C[C@H]1c1cccc(OC2CCCCC2)c1)S(=O)(=O)c1ccc(-c2ccc(Cl)cc2)cc1 (relative stereo) [Example 1-48, (1R*,2S*)-1-[carboxymethyl-(4′-chloro-biphenyl-4-sulfonyl)-amino]-2-(3-cyclohexyloxy-phenyl)-cyclopropanecarboxylic acid] | < 0.1 | ≥ 10
O=C(O)c1cccc(CN([C@]2(C(=O)O)C[C@H]2c2cccc(Oc3ccccc3)c2)S(=O)(=O)c2ccc(-c3ccc(Cl)cc3)cc2)c1 (relative stereo) [Example 1-51, (1R*,2S*)-3-{[[1-carboxy-2-(3-phenoxy-phenyl)-cyclopropyl]-(4′-chloro-biphenyl-4-sulfonyl)-amino]-methyl}-benzoic acid] | < 0.1 | ≥ 10
CCOC(=O)CN([C@]1(C(=O)O)C[C@H]1c1cccc(Oc2ccccc2)c1)S(=O)(=O)c1ccc(-c2ccc(Cl)cc2)cc1 (relative stereo) [Example 1-52, (1R*,2S*)-1-[(4′-chloro-biphenyl-4-sulfonyl)-ethoxycarbonylmethyl-amino]-2-(3-phenoxy-phenyl)-cyclopropanecarboxylic acid] | < 1 | ≥ 10
CN([C@]1(C(=O)O)C[C@H]1c1cccc(Oc2ccccc2)c1)S(=O)(=O)c1ccc(-c2ccc(Cl)cc2)cc1 (relative stereo) [Example 1-53, (1R*,2S*)-1-[(4′-chloro-biphenyl-4-sulfonyl)-methyl-amino]-2-(3-phenoxy-phenyl)-cyclopropanecarboxylic acid] | < 1 | ≥ 10
O=C(O)c1ccc(CN([C@]2(C(=O)O)C[C@H]2c2ccccc2)S(=O)(=O)c2ccc(-c3ccc(Cl)cc3)cc2)o1 (relative stereo) [Example 1-55, 5-{[((1R*,2S*)-1-carboxy-2-phenyl-cyclopropyl)-(4′-chloro-biphenyl-4-sulfonyl)-amino]-methyl}-furan-2-carboxylic acid] | < 1 | ≥ 10
O=C(O)c1cccnc1CN([C@]1(C(=O)O)C[C@H]1c1ccccc1)S(=O)(=O)c1ccc(-c2ccc(Cl)cc2)cc1 (relative stereo) [Example 1-56, 2-{[((1R*,2S*)-1-carboxy-2-phenyl-cyclopropyl)-(4′-chloro-biphenyl-4-sulfonyl)-amino]-methyl}-nicotinic acid] | < 1 | ≥ 10
O=C(O)c1csc(CN([C@]2(C(=O)O)C[C@H]2c2ccccc2)S(=O)(=O)c2ccc(-c3ccc(Cl)cc3)cc2)n1 (relative stereo) [Example 1-60, 2-{[((1R*, 2S*)-1-carboxy-2-phenyl-cyclopropyl)-(4′-chloro-biphenyl-4-sulfonyl)-amino]-methyl}-thiazole-4-carboxylic acid] | < 1 | ≥ 10
O=C(CN([C@]1(C(=O)O)C[C@H]1c1ccccc1)S(=O)(=O)c1ccc(-c2ccc(Cl)cc2)cc1)Nc1nnn[nH]1 (relative stereo) [Example 1-61, (1R*,2S*)-1-{(4′-chloro-biphenyl-4-sulfonyl)-[(1H-tetrazol-5-ylcarbamoyl)-methyl]-amino}-2-phenyl-cyclopropanecarboxylic acid] | < 1 | ≥ 10
CS(=O)(=O)Nc1cccc(CN([C@]2(C(=O)O)C[C@H]2c2ccccc2)S(=O)(=O)c2ccc(-c3ccc(Cl)cc3)cc2)c1 (relative stereo) [Example 1-62, (1R*,2S*)-1-[(4′-chloro-biphenyl-4-sulfonyl)-(3-methanesulfonylamino-benzyl)-amino]-2-phenyl-cyclopropanecarboxylic acid] | < 1 | ≥ 10
O=C(O)[C@@]1(N(CCNS(=O)(=O)C(F)(F)F)S(=O)(=O)c2ccc(-c3ccc(Cl)cc3)cc2)C[C@H]1c1ccccc1 (relative stereo) [Example 1-63, (1R*,2S*)-1-[(4′-chloro-biphenyl-4-sulfonyl)-(2-trifluoromethanesulfonylamino-ethyl)-amino]-2-phenyl-cyclopropanecarboxylic acid] | < 1 | ≥ 10
